ChEMBL document CHEMBL1156236, “Trypanoside, anti-tuberculosis, leishmanicidal, and cytotoxic activities of tetrahydrobenzothienopyrimidines” (Bioorg Med Chem, 2010)
Values after ≈ are worked out from the molar mass of the structure shown.

What was measured:
SK-MEL-5 = assay: Cytotoxicity against human SK-MEL-5 cells; assay type: functional
SN12C = assay: Cytotoxicity against human SN12C cells; assay type: functional
CAKI-1 = assay: Cytotoxicity against human Caki1 cells; assay type: functional
SF-539 = assay: Cytotoxicity against human SF539 cells; assay type: functional
U-251 = assay: Cytotoxicity against human U251 cells; assay type: functional
BT-549 = assay: Cytotoxicity against human BT549 cells; assay type: functional
PC-3 = assay: Cytotoxicity against human PC3 cells; assay type: functional
SR = assay: Cytotoxicity against human SR cells; assay type: functional
LOX IMVI = assay: Cytotoxicity against human LOXIMVI cells; assay type: functional
HL-60(TB) = assay: Cytotoxicity against human HL-60(TB) cells; assay type: functional
HT-29 = assay: Cytotoxicity against human HT-29 cells; assay type: functional
RXF 393 = assay: Cytotoxicity against human RXF393 cells; assay type: functional
MDA-MB-468 = assay: Cytotoxicity against human MDA-MB-468 cells; assay type: functional
A498 = assay: Cytotoxicity against human A498 cells; assay type: functional
SNB-75 = assay: Cytotoxicity against human SNB75 cells; assay type: functional
[1] = Cytotoxicity against human […] cells; assay type: functional
Malme-3M = assay: Cytotoxicity against human MALME-3M cells; assay type: functional
KM12 = assay: Cytotoxicity against human KM12 cells; assay type: functional
HCC 2998 = assay: Cytotoxicity against human HCC2998 cells; assay type: functional
Trypanosoma cruzi = assay: Antitrypanosomal activity against Trypanosoma cruzi tulahuen C4 trypomastigotes infected in african green monkey Vero cells assessed as CPRG cleavage after 120 hrs by microplate reader; assay type: functional, organism-based
TK-10 = assay: Cytotoxicity against human TK10 cells; assay type: functional
HOP-62 = assay: Cytotoxicity against human HOP62 cells; assay type: functional
UO-31 = assay: Cytotoxicity against human UO31 cells; assay type: functional; conditions: read-out: LC50 (the source's name)
NCI-H460 = assay: Cytotoxicity against human NCI-H460 cells; assay type: functional
CCRF-CEM = assay: Cytotoxicity against human CCRF-CEM cells; assay type: functional
ACHN = assay: Cytotoxicity against human ACHN cells; assay type: functional
K562 = assay: Cytotoxicity against human K562 cells; assay type: functional
UACC-257 = assay: Cytotoxicity against human UACC257 cells; assay type: functional
T47D = assay: Cytotoxicity against human T47D cells; assay type: functional
A549 = assay: Cytotoxicity against human A549 cells; assay type: functional
COLO 205 = assay: Cytotoxicity against human COLO205 cells; assay type: functional
HOP-92 = assay: Cytotoxicity against human HOP92 cells; assay type: functional
SF-295 = assay: Cytotoxicity against human SF295 cells; assay type: functional
SNB-19 = assay: Cytotoxicity against human SNB19 cells; assay type: functional
[2] = Selectivity index, ratio of IC50 for african green monkey Vero cells to MIC for Mycobacterium tuberculosis H37Rv ATCC 27294 by microplate alamar blue assay; assay type: functional
[3] = Cytotoxicity against human Hs 578T cells; assay type: functional
Vero = assay: Cytotoxicity against african green monkey Vero cells after 72 hrs by MTS assay; conditions: Chlorocebus sabaeus, Vero, 72 h
UACC-62 = assay: Cytotoxicity against human UACC62 cells; assay type: functional
NCI-H522 = assay: Cytotoxicity against human NCI-H522 cells; assay type: functional
786-0 = assay: Cytotoxicity against human 786-0 cells; assay type: functional
[4] = tested on: Mycobacterium tuberculosis; assay: Antitubercular activity against Mycobacterium tuberculosis H37Rv ATCC 27294 after 7 days by microplate alamar blue assay; assay type: functional; conditions: H37Rv ATCC 27294, 168 h
SK-MEL-28 = assay: Cytotoxicity against human SK-MEL-28 cells; assay type: functional
MDA-MB-231 = assay: Cytotoxicity against human MDA-MB-231 cells; assay type: functional
SF-268 = assay: Cytotoxicity against human SF268 cells; assay type: functional
OVCAR-4 = assay: Cytotoxicity against human OVCAR4 cells; assay type: functional
NCI-H23 = assay: Cytotoxicity against human NCI-H23 cells; assay type: functional
[5] = read-out: LC50 (the source's name)

C(=N\Nc1ncnc2sc3c(c12)CCCC3)/c1ccccn1
GI50 (SK-MEL-5): 0.332 µM
TGI (SK-MEL-5): 1.72 µM
CC50 (SK-MEL-5; [5]): 23.6 µM
GI50 (SN12C): 0.426 µM
TGI (SN12C): 15.3 µM
CC50 (SN12C; [5]): 81 µM
GI50 (CAKI-1): 0.313 µM
TGI (CAKI-1): 14.8 µM
CC50 (CAKI-1; [5]): > 100 µM
GI50 (SF-539): 0.391 µM
TGI (SF-539): 0.384 µM
CC50 (SF-539; [5]): 29.2 µM
GI50 (U-251): 0.369 µM
TGI (U-251): 12.1 µM
CC50 (U-251; [5]): 34.8 µM
GI50 (BT-549): 0.394 µM
TGI (BT-549): 28.7 µM
CC50 (BT-549; [5]): > 100 µM
GI50 (PC-3): 0.431 µM
TGI (PC-3): 71.1 µM
CC50 (PC-3; [5]): > 100 µM
GI50 (SR): 0.368 µM
TGI (SR): 0.953 µM
CC50 (SR; [5]): > 100 µM
GI50 (LOX IMVI): 0.256 µM
CC50 (LOX IMVI; [5]): 34.8 µM
GI50 (HL-60(TB)): 0.12 µM
TGI (HL-60(TB)): 0.407 µM
CC50 (HL-60(TB); [5]): > 100 µM
GI50 (HT-29): 0.1 µM
LC50 (lethal concentration, 50% cell kill) (HT-29): 44.9 µM
TGI (HT-29): 15.1 µM
GI50 (RXF 393): 0.423 µM
TGI (RXF 393): 10.6 µM
CC50 (RXF 393; [5]): 45.3 µM
GI50 (MDA-MB-468): 0.2 µM
TGI (MDA-MB-468): 0.505 µM
CC50 (MDA-MB-468; [5]): 41 µM
GI50 (A498): 0.428 µM
TGI (A498): 8.81 µM
CC50 (A498; [5]): 37.2 µM
GI50 (SNB-75): 0.585 µM
TGI (SNB-75): 14.7 µM
CC50 (SNB-75; [5]): 49.3 µM
GI50 [1]: 0.35 µM
TGI [1]: 12.5 µM
CC50 [1, 5]: > 100 µM
GI50 (Malme-3M): 0.275 µM
TGI (Malme-3M): 10.3 µM
CC50 (Malme-3M; [5]): 51.4 µM
GI50 (KM12): 0.515 µM
TGI (KM12): 12.7 µM
CC50 (KM12; [5]): 38 µM
GI50 (HCC 2998): 10 µM
TGI (HCC 2998): 22.9 µM
CC50 (HCC 2998; [5]): 52.6 µM
IC50 (Trypanosoma cruzi): 3.9 µM
GI50 (TK-10): 0.486 µM
TGI (TK-10): 56.6 µM
CC50 (TK-10; [5]): > 100 µM
GI50 (HOP-62): 0.395 µM
TGI (HOP-62): 17.7 µM
CC50 (HOP-62; [5]): > 100 µM
CC50 (UO-31): 63 µM
GI50 (NCI-H460): 0.4 µM
TGI (NCI-H460): 1.73 µM
CC50 (NCI-H460; [5]): 31.1 µM
GI50 (CCRF-CEM): 0.242 µM
TGI (CCRF-CEM): 0.769 µM
CC50 (CCRF-CEM; [5]): > 100 µM
GI50 (ACHN): 0.313 µM
TGI (ACHN): 11 µM
CC50 (ACHN; [5]): > 100 µM
GI50 (K562): 0.16 µM
TGI (K562): 10.8 µM
CC50 (K562; [5]): > 100 µM
GI50 (UACC-257): 0.355 µM
CC50 (UACC-257; [5]): 41.7 µM
GI50 (T47D): 0.0764 µM
TGI (T47D): 28 µM
CC50 (T47D; [5]): > 100 µM
GI50 (A549): 0.389 µM
TGI (A549): 14.9 µM
CC50 (A549; [5]): 70 µM
GI50 (COLO 205): 0.315 µM
TGI (COLO 205): 14.7 µM
CC50 (COLO 205; [5]): 54.5 µM
GI50 (HOP-92): 0.417 µM
TGI (HOP-92): 31 µM
CC50 (HOP-92; [5]): > 100 µM
GI50 (SF-295): 0.313 µM
TGI (SF-295): 12.1 µM
CC50 (SF-295; [5]): > 100 µM
GI50 (SNB-19): 0.767 µM
TGI (SNB-19): 34.1 µM
CC50 (SNB-19; [5]): > 100 µM
Ratio IC50 [2]: 0.2
GI50 [3]: 0.748 µM
TGI [3]: 23.9 µM
CC50 [3, 5]: > 100 µM
IC50 (Vero): < 0.3 µM
GI50 (UACC-62): 0.379 µM
TGI (UACC-62): 6.54 µM
CC50 (UACC-62; [5]): 48.4 µM
GI50 (NCI-H522): 0.419 µM
TGI (NCI-H522): 23.2 µM
CC50 (NCI-H522; [5]): > 100 µM
GI50 (786-0): 0.333 µM
TGI (786-0): 0.947 µM
CC50 (786-0; [5]): 44.4 µM
MIC [4]: 145 µM (≈ 44.9 µg/mL)
GI50 (SK-MEL-28): 0.422 µM
TGI (SK-MEL-28): 16.7 µM
CC50 (SK-MEL-28; [5]): 54.6 µM
GI50 (MDA-MB-231): 0.603 µM
TGI (MDA-MB-231): 29.7 µM
CC50 (MDA-MB-231; [5]): > 100 µM
GI50 (SF-268): 0.356 µM
TGI (SF-268): 15.1 µM
CC50 (SF-268; [5]): 83 µM
GI50 (OVCAR-4): 0.431 µM
TGI (OVCAR-4): 26.3 µM
CC50 (OVCAR-4; [5]): > 0.1 µM
GI50 (NCI-H23): 0.705 µM
TGI (NCI-H23): 34.3 µM
CC50 (NCI-H23; [5]): > 100 µM
